Laboratory results from patent US20230233569A1 (Revolution Medicines, Inc., priority 2020, published 2023).

Key:
KRAS G12C = KRAS G12C (Homo sapiens, UniProt P01116+P62937, G12C); test: Ras-Raf disruption / FRET / MOA assay (BRAF RBD); format: biochemical; conditions: KRAS G12C FRET data IC50, Ras-Raf disruption, with Cyclophilin A
Summary of the method: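 His6-K-Ras G12C-GMPPNP (12.5 nM), GST-BRAF RBD (50 nM) and tagless Cyclophilin A (25 μM) incubated 3 h at 25 °C with compound (10-point 3-fold series from 30 μM), pH 7.3 HEPES buffer. Anti-His Eu/anti-GST APC added for 1.5 h; decreased TR-FRET ratio vs DMSO gives IC50.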

AsPC-1 (K-Ras G12D) [1] = test: Potency assay: pERK; format: cell-based; conditions: Homo sapiens, ASPC1, read-out: pERK EC50
AsPC-1 (K-Ras G12D) [2] = test: CellTiter-Glo cell viability assay; format: cell-based; conditions: Homo sapiens, ASPC1, 120 h, read-out: AsPC-1 Cell Viability assay data IC50, K-Ras G12D, 5-day treatment
Procedure: Determination of Cell Viability in RAS Mutant Cancer Cell Lines
Protocol: CellTiter-Glo® Cell Viability Assay
Note—The following protocol describes a procedure for monitoring cell viability of K-Ras mutant cancer cell lines in response to a compound of the invention. Other RAS isoforms may be employed, though the number of cells to be seeded will vary based on cell line used.
Test compounds (132.5 nL) were directly dispensed into the assay plates containing cells. […] On day 5, assay plates and their contents were equilibrated to room temperature for approximately 30 minutes. […] Luminescence was measured using the PerkinElmer Enspire. Data were normalized by the following: (Sample signal/Avg. DMSO)*100. The data were fit using a four-parameter logistic fit.

KRAS G12S = KRAS G12S (Homo sapiens, UniProt P01116+P62937, G12S); test: Ras-Raf disruption / FRET / MOA assay (BRAF RBD); format: biochemical; conditions: KRAS G12S FRET data IC50, Ras-Raf disruption, with Cyclophilin A
Sequence of KRAS G12S (P01116 1-169 isoform P01116-2 G12S limits assumed): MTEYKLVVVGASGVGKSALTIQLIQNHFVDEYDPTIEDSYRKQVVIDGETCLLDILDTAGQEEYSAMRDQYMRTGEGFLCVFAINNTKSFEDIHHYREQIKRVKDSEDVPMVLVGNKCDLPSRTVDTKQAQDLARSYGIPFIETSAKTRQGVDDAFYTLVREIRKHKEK
Sequence of KRAS G12S (P62937 whole entry): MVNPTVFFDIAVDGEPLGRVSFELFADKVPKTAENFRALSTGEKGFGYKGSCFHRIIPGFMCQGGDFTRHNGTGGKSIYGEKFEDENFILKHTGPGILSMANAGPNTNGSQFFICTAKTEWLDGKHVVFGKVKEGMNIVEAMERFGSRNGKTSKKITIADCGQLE
Summary of the method: (§1)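 TR-FRET in 25 mM HEPES pH 7.3, 100 mM NaCl, 5 mM MgCl2, 0.1% BSA, 0.002% Tween20 with 25 μM Cyclophilin A, 12.5 nM His6-Ras-GMPPNP, 50 nM GST-BRAF RBD; compound 10-point 3-fold series from 30 μM. After 3 h at 25 °C, Eu anti-His/APC anti-GST added for 1.5 h; IC50 from ratio decrease versus DMSO.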

KRAS WT = KRAS WT (Homo sapiens, UniProt P01116+P62937); test: Ras-Raf disruption / FRET / MOA assay (BRAF RBD); format: biochemical; conditions: KRAS WT FRET data IC50, Ras-Raf disruption, with Cyclophilin A
Sequence of KRAS WT (P01116 1-169 isoform P01116-2 limits assumed): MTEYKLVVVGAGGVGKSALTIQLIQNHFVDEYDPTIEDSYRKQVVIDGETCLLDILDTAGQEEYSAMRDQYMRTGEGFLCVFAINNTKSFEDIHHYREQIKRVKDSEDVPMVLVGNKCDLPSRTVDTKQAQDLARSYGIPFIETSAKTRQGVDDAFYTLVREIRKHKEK
Sequence of KRAS WT (P62937 whole entry): as the sequence (P62937 whole entry) above
Summary of the method: as §1

KRAS G13C = KRAS G13C (Homo sapiens, UniProt P01116+P62937, G13C); test: Ras-Raf disruption / FRET / MOA assay (BRAF RBD); format: biochemical; conditions: KRAS G13C FRET data IC50, Ras-Raf disruption, with Cyclophilin A
Sequence of KRAS G13C (P01116 1-169 isoform P01116-2 G13C limits assumed): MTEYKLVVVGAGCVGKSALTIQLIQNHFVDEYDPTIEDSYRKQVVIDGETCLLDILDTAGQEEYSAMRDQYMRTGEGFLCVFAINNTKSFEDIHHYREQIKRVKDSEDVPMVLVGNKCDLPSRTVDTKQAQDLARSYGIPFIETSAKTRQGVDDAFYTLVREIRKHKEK
Sequence of KRAS G13C (P62937 whole entry): as the sequence (P62937 whole entry) above
Summary of the method: as §1

NRAS Q61R = NRAS Q61R (Homo sapiens, UniProt P01111+P62937, Q61R); test: Ras-Raf disruption / FRET / MOA assay (BRAF RBD); format: biochemical
Sequence of NRAS Q61R (P01111 whole entry Q61R): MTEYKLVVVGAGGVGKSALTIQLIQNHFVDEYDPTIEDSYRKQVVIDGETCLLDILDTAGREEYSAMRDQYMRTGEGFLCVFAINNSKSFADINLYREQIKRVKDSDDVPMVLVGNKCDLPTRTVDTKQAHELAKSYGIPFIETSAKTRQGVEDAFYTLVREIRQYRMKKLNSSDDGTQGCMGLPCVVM
Sequence of NRAS Q61R (P62937 whole entry): as the sequence (P62937 whole entry) above
Summary of the method: as §1

NRAS Q61K = NRAS Q61K (Homo sapiens, UniProt P01111+P62937, Q61K); test: Ras-Raf disruption / FRET / MOA assay (BRAF RBD); format: biochemical
Sequence of NRAS Q61K (P01111 whole entry Q61K): as the sequence (P01111 whole entry Q61R) above, with R61K counted along it
Sequence of NRAS Q61K (P62937 whole entry): as the sequence (P62937 whole entry) above
Summary of the method: as §1

KRAS G12D = KRAS G12D (Homo sapiens, UniProt P01116+P62937, G12D); test: Ras-Raf disruption / FRET / MOA assay (BRAF RBD); format: biochemical; conditions: KRAS G12D FRET data IC50, Ras-Raf disruption, with Cyclophilin A
Sequence of KRAS G12D (P01116 1-169 isoform P01116-2 G12D limits assumed): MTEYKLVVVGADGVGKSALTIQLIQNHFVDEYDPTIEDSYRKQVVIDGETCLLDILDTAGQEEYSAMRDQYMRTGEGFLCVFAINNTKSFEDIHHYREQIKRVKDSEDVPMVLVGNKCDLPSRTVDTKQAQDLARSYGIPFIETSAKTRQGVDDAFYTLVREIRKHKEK
Sequence of KRAS G12D (P62937 whole entry): as the sequence (P62937 whole entry) above
Summary of the method: as §1

KRAS G12V = KRAS G12V (Homo sapiens, UniProt P01116+P62937, G12V); test: Ras-Raf disruption / FRET / MOA assay (BRAF RBD); format: biochemical; conditions: KRAS G12V FRET data IC50, Ras-Raf disruption, with Cyclophilin A
Sequence of KRAS G12V (P01116 1-169 isoform P01116-2 G12V limits assumed): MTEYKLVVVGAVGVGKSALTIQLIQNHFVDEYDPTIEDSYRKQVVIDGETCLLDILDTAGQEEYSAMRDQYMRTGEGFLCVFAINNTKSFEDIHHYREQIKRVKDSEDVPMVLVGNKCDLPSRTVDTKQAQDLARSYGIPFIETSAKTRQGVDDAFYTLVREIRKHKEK
Sequence of KRAS G12V (P62937 whole entry): as the sequence (P62937 whole entry) above
Summary of the method: as §1

KRAS Q61H = KRAS Q61H (Homo sapiens, UniProt P01116+P62937, Q61H); test: Ras-Raf disruption / FRET / MOA assay (BRAF RBD); format: biochemical
Sequence of KRAS Q61H (P01116 1-169 isoform P01116-2 Q61H limits assumed): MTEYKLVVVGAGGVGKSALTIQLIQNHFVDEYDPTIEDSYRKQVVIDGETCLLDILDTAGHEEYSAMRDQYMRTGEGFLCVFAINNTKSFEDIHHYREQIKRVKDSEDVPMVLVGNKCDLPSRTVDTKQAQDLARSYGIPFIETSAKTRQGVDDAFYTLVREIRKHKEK
Sequence of KRAS Q61H (P62937 whole entry): as the sequence (P62937 whole entry) above
Summary of the method: as §1

KRAS G13D = KRAS G13D (Homo sapiens, UniProt P01116+P62937, G13D); test: Ras-Raf disruption / FRET / MOA assay (BRAF RBD); format: biochemical; conditions: KRAS G13D FRET data IC50, Ras-Raf disruption, with Cyclophilin A
Sequence of KRAS G13D (P01116 1-169 isoform P01116-2 G13D limits assumed): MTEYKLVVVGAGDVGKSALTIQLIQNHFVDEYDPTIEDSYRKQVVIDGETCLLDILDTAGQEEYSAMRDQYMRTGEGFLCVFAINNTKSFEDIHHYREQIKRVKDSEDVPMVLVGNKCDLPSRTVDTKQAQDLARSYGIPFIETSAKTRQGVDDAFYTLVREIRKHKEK
Sequence of KRAS G13D (P62937 whole entry): as the sequence (P62937 whole entry) above
Summary of the method: as §1

NRAS WT = NRAS WT (Homo sapiens, UniProt P01111+P62937); test: Ras-Raf disruption / FRET / MOA assay (BRAF RBD); format: biochemical
Sequence of NRAS WT (P01111 whole entry): as the sequence (P01111 whole entry Q61R) above, with R61Q counted along it
Sequence of NRAS WT (P62937 whole entry): as the sequence (P62937 whole entry) above
Summary of the method: as §1

NRAS G12C = NRAS G12C (Homo sapiens, UniProt P01111+P62937, G12C); test: Ras-Raf disruption / FRET / MOA assay (BRAF RBD); format: biochemical; conditions: NRAS G12C FRET data IC50, NRAS G12C
Sequence of NRAS G12C (P01111 whole entry G12C): as the sequence (P01111 whole entry Q61R) above, with G12C, R61Q counted along it
Sequence of NRAS G12C (P62937 whole entry): as the sequence (P62937 whole entry) above
Summary of the method: as §1

Sequence of KRAS G12C (P01116 1-169 isoform P01116-2 G12C limits assumed): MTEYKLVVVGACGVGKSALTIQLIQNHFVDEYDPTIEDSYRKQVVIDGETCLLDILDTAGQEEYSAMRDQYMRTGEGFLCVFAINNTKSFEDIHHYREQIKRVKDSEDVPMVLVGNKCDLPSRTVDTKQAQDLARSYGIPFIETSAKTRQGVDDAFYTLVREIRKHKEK
Sequence of KRAS G12C (P62937 whole entry): as the sequence (P62937 whole entry) above

CCn1c(-c2cccnc2[C@H](C)OC)c2c3cc(ccc31)-c1cc(O)cc(c1)C[C@H](NC(=O)[C@H](C(C)C)N(C)C(=O)CN(C)C(=O)[C@H]1CN1C1COC1)C(=O)N1CCC[C@H](N1)C(=O)OCC(C)(C)C2 (stereo partly shown) [Example 275]
IC50 (KRAS G12C): 10 to 100 nM
EC50 (AsPC-1 (K-Ras G12D) [1]): < 5000 nM
IC50 (AsPC-1 (K-Ras G12D) [2]): 1000 to 10000 nM
IC50 (KRAS G12S): 10 to 100 nM
IC50 (KRAS WT): 100 to 1000 nM
IC50 (KRAS G13C): 10 to 100 nM
IC50 (NRAS Q61R): 100 to 1000 nM
IC50 (NRAS Q61K): 100 to 1000 nM
IC50 (KRAS G12D): 100 to 1000 nM
IC50 (KRAS G12V): 100 to 1000 nM
IC50 (KRAS Q61H): 10 to 100 nM
IC50 (KRAS G13D): 100 to 1000 nM
IC50 (NRAS WT): 100 to 1000 nM
IC50 (NRAS G12C): 10 to 100 nM

CCn1c(-c2cccnc2[C@H](C)OC)c2c3cc(ccc31)-c1cc(O)cc(c1)C[C@H](NC(=O)[C@H](C(C)C)N(C)C(=O)CN(C)C(=O)[C@@H]1CN1CC1COC1)C(=O)N1CCC[C@H](N1)C(=O)OCC(C)(C)C2 (stereo partly shown) [Example 278]
IC50 (KRAS G12C): 10 to 100 nM
EC50 (AsPC-1 (K-Ras G12D) [1]): < 5000 nM
IC50 (AsPC-1 (K-Ras G12D) [2]): 1000 to 10000 nM
IC50 (KRAS G12S): 10 to 100 nM
IC50 (KRAS WT): 10 to 100 nM
IC50 (KRAS G13C): 10 to 100 nM
IC50 (NRAS Q61R): 100 to 1000 nM
IC50 (NRAS Q61K): 100 to 1000 nM
IC50 (KRAS G12D): 10 to 100 nM
IC50 (KRAS G12V): 10 to 100 nM
IC50 (KRAS Q61H): 10 to 100 nM
IC50 (KRAS G13D): 100 to 1000 nM
IC50 (NRAS WT): 10 to 100 nM
IC50 (NRAS G12C): < 10 nM

CCn1c(-c2cccnc2[C@H](C)OC)c2c3cc(ccc31)-c1cc(O)cc(c1)C[C@H](NC(=O)[C@H](C(C)C)N(C)C(=O)CN(C)C(=O)[C@@H]1N[C@@H]1C1COC1)C(=O)N1CCC[C@H](N1)C(=O)OCC(C)(C)C2 [Example 281]
IC50 (KRAS G12C): < 10 nM
EC50 (AsPC-1 (K-Ras G12D) [1]): < 5000 nM
IC50 (AsPC-1 (K-Ras G12D) [2]): 100 to 1000 nM
IC50 (KRAS G12S): < 10 nM
IC50 (KRAS WT): 10 to 100 nM
IC50 (KRAS G13C): 10 to 100 nM
IC50 (NRAS Q61R): 100 to 1000 nM
IC50 (NRAS Q61K): 10 to 100 nM
IC50 (KRAS G12D): 10 to 100 nM
IC50 (KRAS G12V): 10 to 100 nM
IC50 (KRAS Q61H): < 10 nM
IC50 (KRAS G13D): 10 to 100 nM
IC50 (NRAS WT): 10 to 100 nM
IC50 (NRAS G12C): < 10 nM

CCn1c(-c2cccnc2[C@H](C)OC)c2c3cc(ccc31)-c1cc(O)cc(c1)C[C@H](NC(=O)[C@H](C(C)C)N(C)C(=O)CN(C)C(=O)[C@H]1N[C@H]1C1COC1)C(=O)N1CCC[C@H](N1)C(=O)OCC(C)(C)C2 [Example 282]
IC50 (KRAS G12C): 10 to 100 nM
EC50 (AsPC-1 (K-Ras G12D) [1]): < 5000 nM
IC50 (AsPC-1 (K-Ras G12D) [2]): 1000 to 10000 nM
IC50 (KRAS G12S): 10 to 100 nM
IC50 (KRAS WT): 10 to 100 nM
IC50 (KRAS G13C): < 10 nM
IC50 (NRAS Q61R): 100 to 1000 nM
IC50 (NRAS Q61K): 100 to 1000 nM
IC50 (KRAS G12D): 10 to 100 nM
IC50 (KRAS G12V): 10 to 100 nM
IC50 (KRAS Q61H): 10 to 100 nM
IC50 (KRAS G13D): 10 to 100 nM
IC50 (NRAS WT): 10 to 100 nM
IC50 (NRAS G12C): 10 to 100 nM

CCn1c(-c2cccnc2[C@H](C)OC)c2c3cc(ccc31)-c1cc(O)cc(c1)C[C@H](NC(=O)[C@H](C(C)C)N(C)C(=O)CN(C)C(=O)[C@H]1N[C@@H]1C1COC1)C(=O)N1CCC[C@H](N1)C(=O)OCC(C)(C)C2 [Example 284]
IC50 (KRAS G12C): 10 to 100 nM
EC50 (AsPC-1 (K-Ras G12D) [1]): < 5000 nM
IC50 (AsPC-1 (K-Ras G12D) [2]): 1000 to 10000 nM
IC50 (KRAS G12S): 10 to 100 nM
IC50 (KRAS WT): 10 to 100 nM
IC50 (KRAS G13C): < 10 nM
IC50 (NRAS Q61R): 100 to 1000 nM
IC50 (NRAS Q61K): 100 to 1000 nM
IC50 (KRAS G12D): 10 to 100 nM
IC50 (KRAS G12V): 10 to 100 nM
IC50 (KRAS Q61H): 10 to 100 nM
IC50 (KRAS G13D): 10 to 100 nM
IC50 (NRAS WT): 10 to 100 nM
IC50 (NRAS G12C): < 10 nM
